IC50 data for 25 molecules are collected here from patent US8653096B2, “Chemokine receptor antagonists and methods of use thereof” (Millennium Pharmaceuticals, Inc., priority 2001, dated 2014).

pIC50: −log10 of the molar value.

In the first test the target is T1, RANTES/MIP-1α chemokine receptor (CCR1) in THP-1 cell membranes (Homo sapiens, UniProt P32246).
T1 construct: Membranes were prepared from THP-1 cells (ATCC #TIB202); host or cells: THP-1 cells (membrane preparation)
T1 sequence (P32246 1-355): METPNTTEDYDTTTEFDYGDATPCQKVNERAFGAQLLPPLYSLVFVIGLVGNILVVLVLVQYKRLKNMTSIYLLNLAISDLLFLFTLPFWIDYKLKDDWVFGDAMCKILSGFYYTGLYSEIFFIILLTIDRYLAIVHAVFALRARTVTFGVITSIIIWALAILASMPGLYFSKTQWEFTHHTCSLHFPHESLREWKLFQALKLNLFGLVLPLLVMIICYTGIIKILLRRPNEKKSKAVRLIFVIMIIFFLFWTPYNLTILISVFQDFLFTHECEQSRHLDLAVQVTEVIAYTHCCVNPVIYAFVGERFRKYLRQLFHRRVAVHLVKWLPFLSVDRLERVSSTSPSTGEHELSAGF
Kind of test: Receptor binding assay: 125I-RANTES or 125I-MIP-1α binding to THP-1 cell membranes.
Conditions: not given
For `CC(C)(O)c1ccc2c(c1)C(=CCCN1CCC(C#N)(Nc3ccc(Cl)cc3)CC1)c1cccnc1CO2` [Example 464, 4-(4-Chloro-phenylamino)-1-{3-[7-(1-hydroxy-1-methyl-ethyl)-11H-10-oxa-1-aza-dibenzo[a,d]cyclohepten-5-ylidene]-propyl}-piperidine-4-carbonitrile], the pIC50 (commonly −log10 of the IC50, conventionally taken in molar units) is over 6.00.

Molecule `COC(=O)C1(Nc2ccc(Cl)cc2)CCN(CCC=C2c3cc(C(C)(C)O)ccc3OCc3ncccc32)CC1` [Example 465, 4-(4-Chloro-phenylamino)-1-{3-[7-(1-hydroxy-1-methyl-ethyl)-11H-10-oxa-1-aza-dibenzo[a,d]cyclohepten-5-ylidene]-propyl}-piperidine-4-carboxylic acid methyl ester] gave a pIC50 of over 6.00.

In turn, `CC(C)(O)c1ccc2c(c1)C(=CCCN1CCC(Nc3ccc(Cl)cc3)(C(N)=O)CC1)c1cccnc1CO2` [Example 466, 4-(4-Chloro-phenylamino)-1-{3-[7-(1-hydroxy-1-methyl-ethyl)-11H-10-oxa-1-aza-dibenzo[a,d]cyclohepten-5-ylidene]-propyl}-piperidine-4-carboxylic acid amide] gave a pIC50 of over 4.30.

Still in this test, the particulars now being: inhibitor concentration required for 50% inhibition of specific binding; 125I-RANTES or 125I-MIP-1α as ligand, THP-1 cell membranes; read-out: IC50.
As to `CC(C)(C)C(=O)OCOC(=O)c1ccc2c(c1)C(=CCCN1CCC(O)(c3ccc(Cl)cc3)CC1)c1cccnc1CO2` [Example 432, 4-(4-Chlorophenyl)-1-[3-(5,11-dihydro-7-(1-2,2-dimethylpropionyl-oxymethyl)-oxycarbonyl-[1]benzoxepino[2,3-b]pyridin-5-ylidene)propyl]piperidine-4-ol], the pIC50 is over 6.00.

In the case of `CC(C)(O)c1ccc2c(c1)C(=CCCN1CCC(C#N)(c3ccc(Cl)cc3)CC1)c1cccnc1CO2` [Example 456, 4-(4-Chloro-phenyl)-1-{3-[7-(1-hydroxy-1-methyl-ethyl)-11H-10-oxa-1-aza-dibenzo-[a,d]cyclohepten-5-ylidene]-propyl}-piperidine-4-carbonitrile], the pIC50 was over 6.00.

For `CC(=O)C1(c2ccc(Cl)cc2)CCN(CCC=C2c3cc(C(C)(C)O)ccc3OCc3ncccc32)CC1` [Example 457, 1-(4-(4-Chloro-phenyl)-1-{3-[7-(1-hydroxy-1-methyl-ethyl)-11H-10-oxa-1-aza-dibenzo[a,d]cyclohepten-5-ylidene]-propyl}-piperidin-4-yl)-ethanone], the pIC50 is over 6.00.

For the molecule `COC(=O)C1(c2ccc(Cl)cc2)CCN(CCC=C2c3cc(C(C)(C)O)ccc3OCc3ncccc32)CC1` [Example 458, 4-(4-Chloro-phenyl)-1-{3-[7-(1-hydroxy-1-methyl-ethyl)-11H-10-oxa-1-aza-dibenzo[a,d]cyclohepten-5-ylidene]-propyl}-piperidine-4-carboxylic acid methyl ester], the pIC50 is over 5.00.

Turning to `CC(C)(O)c1ccc2c(c1)C(=CCCN1CCC(C(=O)O)(c3ccc(Cl)cc3)CC1)c1cccnc1CO2` [Example 459, 4-(4-Chloro-phenyl)-1-{3-[7-(1-hydroxy-1-methyl-ethyl)-11H-10-oxa-1-aza-dibenzo[a,d]cyclohepten-5-ylidene]-propyl}-piperidine-4-carboxylic acid], the pIC50 was over 5.00.

Regarding `CC(C)(O)c1ccc2c(c1)C(=CCCN1CCC(C(N)=O)(c3ccc(Cl)cc3)CC1)c1cccnc1CO2` [Example 460, 4-(4-Chloro-phenyl)-1-{3-[7-(1-hydroxy-1-methyl-ethyl)-11H-10-oxa-1-aza-dibenzo[a,d]cyclohepten-5-ylidene]-propyl}-piperidine-4-carboxylic acid amide], the negative-log IC50 (pIC50) is over 6.00.

On to `CC(C)(O)c1ccc2c(c1)C(=CCCN1CCC(CO)(c3ccc(Cl)cc3)CC1)c1cccnc1CO2` [Example 461, 2-(5-{3-[4-(4-Chloro-phenyl)-4-hydroxymethyl-piperidin-1-yl]-propylidene}-5,11-dihydro-10-oxa-1-aza-dibenzo[a,d]cyclohepten-7-yl)-propan-2-ol], for which the pIC50 was over 5.00.

`CC(O)C1(c2ccc(Cl)cc2)CCN(CCC=C2c3cc(C(C)(C)O)ccc3OCc3ncccc32)CC1` (stereo not shown) [Example 462, 2-(5-{3-[4-(4-chloro-phenyl)-4-(1-hydroxy-ethyl)-piperidin-1-yl]-propylidene}-5,11-dihydro-10-oxa-1-aza-dibenzo [a,d]cyclohepten-7-yl)-propan-2-ol]: the pIC50 is over 5.00.

For `CC(C)(O)c1ccc2c(c1)C(=CCCN1CCC(c3ccc(Cl)cc3)(C(C)(C)O)CC1)c1cccnc1CO2` [Example 463, 2-(5-{3-[4-(4-Chloro-phenyl)-4-(1-hydroxy-1-methyl-ethyl)-piperidin-1-yl]-propylidene}-5,11-dihydro-10-oxa-1-aza-dibenzo[a,d]cyclohepten-7-yl)-propan-2-ol], the pIC50 was over 5.00.

For `CC(C)(O)c1ccc2c(c1)C(=CCCN1CCC(F)(c3ccc(Cl)cc3)CC1)c1cccnc1CO2` [Example 467, 2-(5-{3-[4-(4-Chloro-phenyl)-4-fluoro-piperidin-1-yl]-propylidene}-5,11-dihydro-10-oxa-1-aza-dibenzo[a,d]cyclohepten-7-yl)-propan-2-ol], the pIC50 is over 6.00.

On to `CC(C)(O)c1ccc2c(c1)C(=CCCN1CCC(F)(c3ccc(Cl)cc3)C(O)C1)c1cccnc1CO2` (stereo not shown) [Example 468, 4-(4-Chloro-phenyl)-4-fluoro-1-{3-[7-(1-hydroxy-1-methyl-ethyl)-11H-10-oxa-1-aza-dibenzo[a,d]cyclohepten-5-ylidene]-propyl}-piperidin-3-ol], for which the pIC50 is over 6.00.

Consider `CC1CN(CCC=C2c3cc(C(C)(C)O)ccc3OCc3ncccc32)CCC1(F)c1ccc(Cl)cc1` (stereo not shown) [Example 469, 2-(5-{3-[4-(4-Chloro-phenyl)-4-fluoro-3-methyl-piperidin-1-yl]-propylidene}-5,11-dihydro-10-oxa-1-aza-dibenzo[a,d]cyclohepten-7-yl)-propan-2-ol], for which the pIC50 is over 6.00.

For the molecule `CC(C)(O)c1ccc2c(c1)C(=CCCN1CCC(O)(c3ccc(Cl)cc3)C(O)C1)c1cccnc1CO2` (stereo not shown) [Example 470, 4-(4-Chloro-phenyl)-1-{3-[7-(1-hydroxy-1-methyl-ethyl)-11H-10-oxa-1-aza-dibenzo[a,d]cyclohepten-5-ylidene]-propyl}-piperidine-3,4-diol], the pIC50 was over 6.00.

With `CCC1CN(CCC=C2c3cc(C(C)(C)O)ccc3OCc3ncccc32)CCC1(O)c1ccc(Cl)cc1` (stereo not shown) [Example 471, 4-(4-Chloro-phenyl)-3-ethyl-1-{3-[7-(1-hydroxy-1-methyl-ethyl)-11H-10-oxa-1-aza-dibenzo[a,d]cyclohepten-5-ylidene]-propyl}-piperidin-4-ol], the pIC50 was over 6.00.

For the molecule `CC(C)(O)c1ccc2c(c1)C(=CCCN1CCC3(CC1)OC(=O)c1cc(Cl)ccc13)c1cccnc1CO2` [Example 472, 5-Chloro-1-{3-[7-(1-hydroxy-1-methyl-ethyl)-11H-10-oxa-1-aza-dibenzo[a,d]-cyclohepten-5-ylidene}-propyl]-spiro[3-oxo-1,3-dihydroisobenzofuran-1,4′-piperidine]], the pIC50 is over 6.00.

Take `COC1(c2ccc(Cl)cc2)CCN(CCC=C2c3cc(C(C)(C)O)ccc3OCc3ncccc32)CC1(C)O` (stereo not shown) [Example 473, 4-(4-Chloro-phenyl)-1-{3-[7-(1-hydroxy-1-methyl-ethyl)-11H-10-oxa-1-aza-dibenzo[a,d]cyclohepten-5-ylidene]-propyl}-4-methoxy-3-methyl-piperidin-3-ol]: the pIC50 was over 6.00.

Turning to `COC1(c2ccc(Cl)cc2)CCN(CCC=C2c3cc(C(C)(C)O)ccc3OCc3ncccc32)CC1O` (stereo not shown) [Example 474, 4-(4-Chloro-phenyl)-1-{3-[7-(1-hydroxy-1-methyl-ethyl)-11H-10-oxa-1-aza-dibenzo[a,d]cyclohepten-5-ylidene]-propyl}-4-methoxy-piperidin-3-ol], the pIC50 was over 6.00.

For `COC1CN(CCC=C2c3cc(C(C)(C)O)ccc3OCc3ncccc32)CCC1(OC)c1ccc(Cl)cc1` (stereo not shown) [Example 475, 2-(5-{3-[4-(4-Chloro-phenyl)-3,4-dimethoxy-piperidin-1-yl]-propylidene}-5,11-dihydro-10-oxa-1-aza-dibenzo[a,d]cyclohepten-7-yl)-propan-2-ol], the pIC50 was over 6.00.

Consider `CC(C)(O)c1ccc2c(c1)C(=CCCN1CCC(O)(c3ccc(Cl)cc3)C(N=[N+]=[N-])C1)c1cccnc1CO2` (stereo not shown) [Example 476, 3-Azido-4-(4-chloro-phenyl)-1-{3-[7-(1-hydroxy-1-methyl-ethyl)-11H-10-oxa-1-aza-dibenzo[a,d]cyclohepten-5-ylidene}-propyl}-piperidin-4-ol], for which the pIC50 was over 6.00.

Turning to `CC(C)(O)c1ccc2c(c1)C(=CCCN1CCC(N=[N+]=[N-])(c3ccc(Cl)cc3)C(O)C1)c1cccnc1CO2` (stereo not shown) [Example 477, 4-Azido-4-(4-chloro-phenyl)-1-{3-[7-(1-hydroxy-1-methyl-ethyl)-11H-10-oxa-1-aza-dibenzo[a,d]cyclohepten-5-ylidene]-propyl}-piperidin-3-ol], the pIC50 was over 5.00.

On to `CCC(=O)NC1CN(CCC=C2c3cc(C(C)(C)O)ccc3OCc3ncccc32)CCC1(O)c1ccc(Cl)cc1` (stereo not shown) [Example 478, N-[4-(4-Chloro-phenyl)-4-hydroxy-1-{3-[7-(hydroxyl-1-methyl-ethyl)-11H-10-oxa-1-aza-dibenzo[a,d]cyclohepten-5-ylidene]-propyl}-piperidin-3-yl)-propionamide], for which the pIC50 is over 5.00.

As for `COC(=O)C1(C)CN(CCC=C2c3cc(C(C)(C)O)ccc3OCc3ncccc32)CCC1(O)c1ccc(Cl)cc1` (stereo not shown) [Example 481, 4-(4-Chloro-phenyl)-4-hydroxy-1-{3-[7-(hydroxyl-1-methyl-ethyl)-11H-10-oxa-1-aza-dibenzo[a,d]cyclohepten-5-ylidene}-propyl]-3-methyl-piperidine-3-carboxylic acid methyl ester], the pIC50 is over 6.00.
